The source of these data is patent EP0497299A1, “Decarestrictine and related compounds, process for their preparation and use” (HOECHST AKTIENGESELLSCHAFT, priority 1991, dated 1992).

The subject of the assay is Cholesterinbiosynthese. Description: Inhibition of cholesterol biosynthesis from 14C-acetate in HEP-G2 liver cell culture. The assay is classed as cell-based. The note with it: Homo sapiens, HepG2, 3 h, HEP-G2-Zellen; for IC50: (¹⁴C)Natriumacetat, standard preparations, read-out: IC₅₀; for inhibition at 0.01 µM: Konzentration von 10⁻⁸ mol/l, read-out: Hemmung der Cholesterinbiosynthese. The source says: 2. Die biologische Wirksamkeit der Verbindungen als Inhibitor an der Cholesterinbiosynthese läßt sich in vitro in Leberzellkulturen nachweisen.
Monolayer von HEP-G2-Zellen in lipoproteinfreiem Nährmedium werden mit entsprechenden Konzentrationen der zu prüfenden Substanzen der allgemeinen Formel I eine Stunde vorinkubiert. Nach Zugabe der ¹⁴C-markierten Biosynthesevorstufe (¹⁴C)Natriumacetat wird die Inkubation für 3 Stunden fortgesetzt. Danach wird ein Teil der Zellen alkalisch verseift, bei vorheriger Zugabe eines internen Standards von ³H-Cholesterin. Die Lipide der verseiften Zellen werden mit einem Gemisch aus Chloroform-Methanol extrahiert. Dieses Lipidgemisch wird nach Zusatz von Trägercholesterin präparativ dünnschichtchromatographisch aufgetrennt, die Cholesterinbande nach Anfärbung isoliert und die aus dem ¹⁴C-Precursor gebildete Menge ¹⁴C-Cholesterin szintigraphisch bestimmt. In einem aliquoten Teil der Zellen wurde Zellprotein bestimmt, so daß die in der Zelleinheit pro mg Zellprotein aus ¹⁴C-Präkusor gebildete Menge ¹⁴C-Cholesterins berechnet werden kann. Zum Vergleich für die Hemmwirkung eines zugesetzten Prüfpräparates dient die Kontrolle, so daß direkt die Hemmung der Cholesterinbiosynthese bei einer bestimmten molaren Konzentration des Prüfpräparates im Medium angegeben werden kann. In aliquoten Anteilen der Zellkultur wird die Intaktheit der Zellkultur und die fehlende Zellschädigung durch Präparateeinwirkung morphologisch (Lichtmikroskopie) beurteilt und biochemisch durch Bestimmung der Lactat-Dehydrogenase-Abgabe ins Inkubationsmedium gemessen.

Take `C[C@H](CCCC(C)(C)O)[C@H]1CC[C@H]2[C@@H]3CC=C4C[C@@H](O)CC[C@]4(C)[C@H]3CC[C@]12C` [25-Hydroxycholesterin]: the IC50 was 230 nM.
On to `COC(=O)CC1CC(O)C(C(O)CC(C)O)O1` (stereo not shown) [Formel 1.4], for which the inhibition at 0.01 µM was 38%.
For `COC(=O)C=C1CC(O)C(C(O)CC(C)O)O1` (stereo not shown) [Formel 1.5], the inhibition at 0.01 µM came to 60%.
With `CC[C@H](C)C(=O)O[C@H]1C[C@@H](C)C=C2C=C[C@H](C)[C@H](CC[C@@H]3C[C@@H](O)CC(=O)O3)[C@H]21` [Lovastatin], the IC50 was determined as 23 nM.
